Experimental data published in patent publication US9073961B2, “Substitution derivatives of N6 -benzyladenosine-5′-monophosphate, methods of preparation thereof, use thereof as medicaments, and therapeutic preparations containing these compounds” (UNIVERZITA PALACKEHO V OLOMOUCI, priority 2010, dated 2015).

Tests used:
[1] = test system: HOS (human osteogenic sarcoma); assay: Calcein AM cytotoxicity assay, HOS; type: cell-based; conditions: 72 hours incubation
Outline: (§1)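 Cells pre-incubated 24 h at 37° C., 5% CO2, then exposed 72 h to compound at six 3-fold dilutions (top 166.7 μM), in triplicate. Calcein AM added to 1 μg/ml final; fluorescence read after 1 h. GI50 is the concentration giving 50% reduction of esterase activity, taken from dose-response curves.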

[2] = test system: K-562 (human erythroleukemia); assay: Calcein AM cytotoxicity assay, K-562; type: cell-based; conditions: 72 hours incubation
Outline: as §1

MCF-7 (breast carcinoma) = assay: Calcein AM cytotoxicity assay, MCF7; type: cell-based; conditions: 72 hours incubation
Outline: as §1

[3] = test system: Normal human fibroblasts BJ; assay: Calcein AM cytotoxicity assay, BJ; type: cell-based; conditions: 72 hours incubation
Outline: as §1

[4] = test system: CEM (T-lymphoblastoid leukemia); assay: Calcein AM cytotoxicity assay, CEM; type: cell-based
Outline: as §1

[5] = test system: HL-60 (promyelocytic leukemia); assay: Calcein AM cytotoxicity assay, HL60; type: cell-based, human; conditions: 72 hours incubation
Outline: as §1

caspase-3 = assay: Activity of caspase-3 in CEM cells (Apo-ONE kit); type: cell-based; conditions: 10 μM, 12 and 24 hours
Experimental: In the course of apoptosis, caspase cascade is activated. Caspase-3 is an effector caspase that plays a role in the induction of some changes typical for apoptosis (chromatin condensation, DNA fragmentation).
Leukemia cell line CEM was cultured in cell culture medium (DMEM containing 5 g/l glucose, 2 mM glutamine, 100 U/ml peniciline, 100 μg/ml streptomycine, 10% fetal calf serum and sodium bicarbonate). 24 hours before treatment, cell suspensions were centrifuged, diluted to concentration of 500000 cells per ml with fresh medium and pipetted in 50 µL aliquotes into 96-well plate. After 12 and 24 hours of incubation with the test compound, the activity of caspase-3 was measured using commercial kit (Apo-ONE, Promega) that is based on quantification of hydrolysis of fluorogenic substrate Z-DEVD-R110 (excitation 480 nm/emission 520 nm). Reaction specifity was confirmed in a control experiment, when both test compound and caspase-3 inhibitor Ac-DEVD-CHO were added. All experiments were done in triplicate.

Leukemia cell line CEM = assay: Flow cytometry analysis of apoptosis (DNA fragmentation, sub-G1) in CEM; type: cell-based
Experimental: One of the hallmarks of apoptosis is fragmentation of DNA. It can be measured by flowcytometry of the cells stained with propidium iodide. Because the fragmentation results in a loss of a fraction of the nuclear DNA, apoptotic cells have a lower DNA content than cells in G1 phase of cell cycle and can be detected as a subG1 peak in the histogram.
Leukemia cell line CEM was cultured in cell culture medium (DMEM containing 5 g/l glucose, 2 mM glutamine, 100 U/ml penicillin, 100 μg/ml streptomycine, 10% fetal calf serum and sodium bicarbonate). 24 hours before treatment, cell suspensions were centrifuged, diluted with fresh medium to concentration of 100000 cells per ml with fresh medium and pipetted in 10 ml aliquotes Petri dishes. After an incubation for a given time period, the cells were collected by centrifugation (4° C., 600 g), washed with PBS (4° C.) and fixed with 70% ethanol at −20° C. overnight. Low molecular weight DNA fragmentse were extracted with citrate buffer (11.36 g trisodium citrate dihydrate/l). The nuclei were stained with the solution of propidium iodide in PBS (10 μg/ml) containing RNase A (60 IU per sample). After 1 hour incubation the samples were analyzed by flowcytometry (excitation 488 nm, emission above 620 nm).

O=P(O)(O)OC[C@H]1O[C@@H](n2cnc3c(NCc4ccccc4O)ncnc32)[C@H](O)[C@@H]1O [Compound 21, 6-(2-hydroxybenzylamino)purine riboside-5′-monophosphate]
GI50 [1]: 2500 nM | GI50 [2]: 4000 nM | GI50 (MCF-7 (breast carcinoma)): 10500 nM | GI50 [3]: 43200 nM | GI50 ([4]; 72 hours incubation, Calcein AM): 1300 nM | IC50 ([4]; FIG. 2 legend): 1300 nM | GI50 [5]: 480 nM | activation of caspase-3 (caspase-3): activates caspase-3 | time after which DNA fragmentation effect was visible (Leukemia cell line CEM): ≤ 12 h | induction of DNA fragmentation (apoptotic sub-G1 fraction) (Leukemia cell line CEM; IC50, triple IC50 and fivefold IC50): induction of DNA fragmentation is dependent on the concentration of compound 21 and the time of the treatment
